Test results taken from the Kinase Knowledgebase extract (Sharma et al. 2016).
pIC50: −log10 of the molar value.

Target: EGFR (UniProt P00533)
Sequence (P00533 whole entry, looked up): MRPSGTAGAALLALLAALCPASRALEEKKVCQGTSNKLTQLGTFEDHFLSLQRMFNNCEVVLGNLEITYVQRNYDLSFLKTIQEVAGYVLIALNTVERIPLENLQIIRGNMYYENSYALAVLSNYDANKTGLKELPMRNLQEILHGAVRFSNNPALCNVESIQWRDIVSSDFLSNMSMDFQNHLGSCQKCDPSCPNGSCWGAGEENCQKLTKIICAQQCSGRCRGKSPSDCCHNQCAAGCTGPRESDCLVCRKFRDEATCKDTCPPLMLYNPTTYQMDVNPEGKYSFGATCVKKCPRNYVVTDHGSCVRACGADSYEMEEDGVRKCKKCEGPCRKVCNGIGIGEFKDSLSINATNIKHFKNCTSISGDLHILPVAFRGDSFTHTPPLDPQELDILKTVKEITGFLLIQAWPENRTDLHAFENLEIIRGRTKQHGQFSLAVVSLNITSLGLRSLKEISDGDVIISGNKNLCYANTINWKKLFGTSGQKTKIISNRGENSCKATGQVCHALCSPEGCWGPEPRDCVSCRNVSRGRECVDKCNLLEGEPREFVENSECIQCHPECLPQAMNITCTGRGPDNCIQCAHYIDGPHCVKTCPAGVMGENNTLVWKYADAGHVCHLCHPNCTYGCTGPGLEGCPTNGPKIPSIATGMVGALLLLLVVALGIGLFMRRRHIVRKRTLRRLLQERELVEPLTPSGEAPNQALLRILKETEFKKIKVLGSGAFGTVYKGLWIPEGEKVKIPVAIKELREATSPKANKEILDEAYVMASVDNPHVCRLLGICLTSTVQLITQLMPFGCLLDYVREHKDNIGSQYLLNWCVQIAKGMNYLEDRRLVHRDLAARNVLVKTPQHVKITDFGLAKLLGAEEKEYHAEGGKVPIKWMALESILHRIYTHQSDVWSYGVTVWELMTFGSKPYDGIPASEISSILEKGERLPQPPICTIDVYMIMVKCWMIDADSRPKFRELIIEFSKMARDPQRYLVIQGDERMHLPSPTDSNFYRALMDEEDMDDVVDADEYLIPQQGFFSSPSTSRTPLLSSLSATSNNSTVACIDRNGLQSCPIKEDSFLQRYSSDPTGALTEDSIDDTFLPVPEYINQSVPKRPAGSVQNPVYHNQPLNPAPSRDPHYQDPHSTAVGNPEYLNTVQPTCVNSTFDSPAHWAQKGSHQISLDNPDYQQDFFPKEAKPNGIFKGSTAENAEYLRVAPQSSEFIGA

pIC50, 4.60 to 8.52:
COC(=O)c1cn2ncnc(Nc3cccc(C(=O)O)c3)c2c1C
COC(=O)c1cn2ncnc(Nc3cccc(S(N)(=O)=O)c3)c2c1C
COc1ccc(Nc2ncnn3cc(C(=O)NCCCN4CCOCC4)c(C)c23)cc1O
COC(=O)c1cn2ncnc(C3C(=O)Nc4ccc(S(N)(=O)=O)cc43)c2c1C (configuration not stated)
COC(=O)c1cn2ncnc(N(C)c3ccc(C)c(O)c3)c2c1C
COC(=O)c1cn2ncnc(Cl)c2c1C
CCCCNc1ncnn2cc(C(=O)OCC)c(CC)c12
Cc1c(C(=O)OCc2ccccc2)cn2ncnc(C3C(=O)Nc4ccccc43)c12 (configuration not stated)
COC(=O)c1cn2ncnc(Nc3ccc(Oc4ccccc4)cc3)c2c1C
Cc1c(OCCCn2nccn2)cn2ncnc(Nc3cccc(Br)c3)c12
COC(=O)c1cn2ncnc(Nc3cccc(CO)c3)c2c1C
COC(=O)c1cn2ncnc(Nc3ccc(C)c(N)c3)c2c1C
Fc1cc(Br)ccc1Nc1ncnn2cccc12
Cc1c(C(=O)NCCCN2CCOCC2)cn2ncnc(Nc3ccc(Br)c(O)c3)c12
CCOC(=O)c1c(CC)c2c(Nc3ccc4c(cnn4Cc4ccccc4)c3)ncnn2c1Br
CCNC(=O)c1cn2ncnc(Nc3ccc4c(cnn4Cc4ccccc4)c3)c2c1CC
COC(=O)c1cn2ncnc(C3C(=O)Nc4ccc(C#N)cc43)c2c1C (configuration not stated)
Cc1c(C(=O)NCC2CCCO2)cn2ncnc(C3C(=O)Nc4ccccc43)c12 (configuration not stated)
Cc1ccc(Nc2ncnn3cc(N)c(C)c23)cc1O
Cc1cc2c(Nc3ccc(C)c(O)c3)ncnn2c1
Cc1nc(C2C(=O)Nc3ccccc32)c2c(C)c(C(N)=O)cn2n1 (configuration not stated)
COC(=O)c1cn2ncnc(C3C(=O)Nc4ccc(S(=O)(=O)NCCN5CCCC5)cc43)c2c1C (configuration not stated)
COC(=O)c1cn2ncnc(-c3c(O)[nH]c4cc(F)ccc34)c2c1C
COC(=O)c1cn2ncnc(Nc3ccc(C)cn3)c2c1C
COC(=O)c1cn2ncnc(Nc3ccc(Br)c(C)c3)c2c1C
Cc1c(C(=O)CCN2CCOCC2)cn2ncnc(C3C(=O)Nc4ccccc43)c12 (configuration not stated)
CCOC(=O)c1cn2ncnc(Nc3ccc(C)c(O)c3)c2c1Cc1ccccc1
COC(=O)c1cn2ncnc(-c3c(O)[nH]c4cc(Br)ccc34)c2c1C
COc1c(NC(=O)OCc2ccccc2)cn2ncnc(C3C(=O)Nc4ccccc43)c12 (configuration not stated)
Cc1ccc(Nc2ncnn3ccc(C)c23)c(O)c1
CCOC(=O)c1cn2ncnc(Nc3ccc(OC)cc3)c2c1CC
Cc1ccc(Nc2nc(N(C)C)nn3cccc23)cc1O
Cc1ccc(Nc2ncnn3cc(C)c(C)c23)cc1O
Cc1ccc(Nc2ncnn3cc(C(=O)NCCN(C)C)c(C)c23)cc1O
COC(=O)c1cn2ncnc(C3C(=O)N(C)c4ccccc43)c2c1C (configuration not stated)
Cc1ccc(Nc2ncnn3cc(C(=O)NCCCN4CCCC4)c(C)c23)cc1O
Cc1ccc(Nc2ncnn3c(C)ccc23)cc1O
CCc1c(C(=O)N(CCCn2ccnc2)c2ccccn2)cn2ncnc(Nc3ccc4c(cnn4Cc4ccccc4)c3)c12
COC(=O)c1cn2ncnc(C3C(=O)Nc4cc(C#N)ccc43)c2c1C (configuration not stated)
CCCc1c(C(=O)NCCCN2CCOCC2)cn2ncnc(Nc3ccc(C)c(O)c3)c12
COC(=O)c1cn2ncnc(Nc3ccc(OC)nc3)c2c1C
COC(=O)c1cn2ncnc(Nc3ccc(Cl)c([N+](=O)[O-])c3)c2c1C
CCOC(=O)c1cn2ncnc(NCCCn3ccnc3)c2c1CC
CCOC(=O)c1cn2ncnc(Nc3ccc(O)cc3)c2c1CC
COC(=O)c1cn2ncnc(Nc3ccc(OC)cc3)c2c1C
COC(=O)c1c(OC)c(OC)c2c(C3C(=O)Nc4ccccc43)ncnn12 (configuration not stated)
Cc1c(NS(=O)(=O)CCCN2CCOCC2)cn2ncnc(C3C(=O)Nc4ccccc43)c12 (configuration not stated)
Cc1c(C(=O)NCCCn2cncn2)cn2ncnc(C3C(=O)Nc4ccccc43)c12 (configuration not stated)
CCOC(=O)c1cn2ncnc(N[C@@H](C)c3ccccc3)c2c1CC
CCc1c(C(=O)N(C)C)cn2ncnc(Nc3ccc4c(cnn4Cc4ccccc4)c3)c12
Cc1nc(Nc2ccc(C)c(O)c2)c2c(C)c(C(N)=O)cn2n1
COCCCNC(=O)c1cn2ncnc(Nc3ccc(C)c(O)c3)c2c1C
CCOC(=O)c1cn2ncnc(Nc3ccc(C)c(O)c3)c2c1C(C)C
COC(=O)c1cn2ncnc(C3C(=O)Nc4cc(S(C)(=O)=O)ccc43)c2c1C (configuration not stated)
CCOC(=O)c1cn2ncnc(Nc3ccc(F)c(Cl)c3)c2c1Cc1ccccc1
CCc1ccc(Nc2ncnn3cc(C(=O)OC)c(C)c23)cc1O
COC(=O)c1cn2ncnc(N3CC(=O)Nc4ccccc43)c2c1C
CCOC(=O)c1cn2ncnc(NCCc3ccccn3)c2c1CC
Cc1ccc(Nc2ncnn3cc(C(=O)NCCCCN(C)C)c(C)c23)cc1O
CCc1c(C(=O)NCCN2CCOCC2)cn2ncnc(Nc3ccc4c(cnn4Cc4ccccc4)c3)c12
COC(=O)c1cn2ncnc(Nc3ccc(C(=O)O)c(O)c3)c2c1C
COC(=O)c1cn2ncnc(Nc3cccc(O)c3)c2c1C
COC(=O)c1cn2ncnc(C3C(=O)Nc4ccc(S(=O)(=O)N5CCOCC5)cc43)c2c1C (configuration not stated)
COC(=O)c1cn2ncnc(Nc3ccc(OC)c(OC)c3)c2c1C
CCOC(=O)c1cn2ncnc(Nc3ccc(C)cc3)c2c1CC
CCOC(=O)c1cn2ncnc(Nc3ccc(F)c(Cl)c3)c2c1CC
CCOC(=O)c1cn2ncnc(C3C(=O)Nc4ccccc43)c2c1C(=O)OCC (configuration not stated)
COc1cn2ncnc(C3C(=O)Nc4ccccc43)c2c1C (configuration not stated)
CCOC(=O)c1cn2ncnc(Cl)c2c1CC
CCOC(=O)c1cn2ncnc(Nc3ccc(C)c(NS(C)(=O)=O)c3)c2c1CC
COC(=O)c1cn2ncnc(C3C(=O)Nc4ccc(S(=O)(=O)NCCN5CCOCC5)cc43)c2c1C (configuration not stated)
COC(=O)c1cn2ncnc(Nc3ccc(C)c(NS(C)(=O)=O)c3)c2c1C
Cc1c(C(N)=O)cn2ncnc(C3C(=O)Nc4ccccc43)c12 (configuration not stated)
COC(=O)c1cn2ncnc(-n3[nH]c(=O)c4ccccc43)c2c1C
COC(=O)c1cn2ncnc(Nc3ccc4c(C)cc(=O)[nH]c4c3)c2c1C
CCOC(=O)c1cn2ncnc(Nc3ccc(C)c(O)c3)c2c1C(=O)OCC
CCOC(=O)c1cn2ncnc(NCC3(O)CCCCC3)c2c1CC
CCOC(=O)c1cn2ncnc(N[C@H]3CC[C@H](O)CC3)c2c1CC
COC(=O)c1cn2ncnc(Nc3ccc(C)c(OC)c3)c2c1C
Cc1ccc(Nc2ncnn3cc(C(=O)NCCN4CCCC4)c(C)c23)cc1O
CCOC(=O)c1cn2ncnc(Nc3ccc(Br)cc3F)c2c1OC
COC(=O)c1cn2ncnc(C3C(=O)Nc4ccccc43)c2c1C (configuration not stated)
